This is an account of results in a melting point compilation (Tetko et al.; mined from patent text by program, amines drawn as free bases though some values may be those of a salt).

The term melting point denotes the temperature, or range, at which the solid turns liquid.

Turning to `N#Cc1cccc(CN2CCc3ccc(C(=O)CCCC4CCN(Cc5ccccc5Cl)CC4)cc3CC2)c1`, the melting point is 121 to 122 °C.

In the case of `CCc1c[nH]c(=O)c(N)c1Sc1cc(C)cc(C)c1`, the melting point fell in the range of 208 to 209 °C.

Regarding `ON=Cc1ccc(-c2ccc(O)cc2)c(Cl)c1Cl`, the melting point was 208 to 210 °C. The result for `Cc1nnc(-c2cnc3occ(-c4ccccc4Cl)c3c2)o1` reads 141 to 142 °C; that for `CC(=O)COc1ccc2c(c1)C(=O)NC(C)(C)O2`, 125 to 126 °C. As for `C=CCc1c(C(=O)OC)[nH]c2c(C)ccc(C)c12`, the figure is 135 to 136 °C. Compound `O=C(O)c1c(Cl)cc(Cl)nc1Cl` came in with a melting point of 138 to 141 °C. As to `CCCn1nc2c(N)nc3cnccc3c2c1CCNC(=O)c1ccc(F)cc1`, the melting point was in the range of 317 to 318 °C. The result for `Cn1ccnc1S(=O)c1ccc(Cl)cc1` (centres undefined) reads 96 to 97 °C. The result for `CCOC(=O)c1ccc(-c2ccc(-c3ccc(C(F)(F)F)cc3)s2)cc1` reads 203 to 204 °C; that for `CCOC(=O)c1cn(C2CC2)c2c(C#N)c(F)c(F)cc2c1=O`, 209 to 211 °C. The result for `COc1cc(C)cc2c(Br)ccc(OC(C)C)c12` reads 78 °C; that for `COC(=C1C2CC3CC1CC(O)(C3)C2)c1cccc(O)c1`, 171 to 172 °C. The compound `COc1ccc(-n2c(=O)c(O)nc3cccnc32)cc1` registered a melting point greater than 300 °C.

Regarding `CS(=O)(=O)c1cccc(NC(=O)c2cnn3c(C(F)F)cc(-c4ccc(C(F)(F)F)c(Cl)c4)nc23)c1`, the melting point came to 228 °C. The result for `Cc1sc2c(c1C)C(c1ccc(Cl)cc1)=NCc1nnc(C)n1-2` reads greater than 250 °C; that for `CC(C)Nc1ncc2cc(-c3c(Cl)cccc3Cl)c(=O)n(C)c2n1`, 194 to 196 °C. As for `CCCc1c2c(c(OC)c3c(=O)cc(C(=O)O)oc13)CCCC2`, the figure is 228 to 229 °C; as for `CCCCC(CC(=O)Nc1cc(C(N)=O)ccc1C(C)(C)C)c1cc(Cl)c(OC)cc1OC` (centres undefined), 212 to 214 °C; as for `CC(=O)OCC(ON1C(C)(C)CC(OC(=O)C(C)(C)C)CC1(C)C)c1ccccc1` (centres undefined), 102 to 103 °C. As for `COC(=O)C(C)(C)Oc1ccc(C(C)=O)cc1`, the melting point was in the range of 62 to 63 °C. As for `CN1CCC(O)(c2cc(F)cc(Cl)c2)C1` (centres undefined), the figure is 117 to 118 °C; as for `CSc1nccn1CC(=O)NC1C(=O)N2C(C(=O)O)=C(CSc3nnc(C)s3)CSC12` (centres undefined), 220 °C; as for `OC(CNCCCc1ccccc1)COc1cccc2[nH]ncc12` (centres undefined), 122 to 124 °C. In the case of `COCC1CCCN1S(=O)(=O)c1cc2c(cc1Cl)N1CCCN=C1C2=O` (centres undefined), the melting point was 127 to 130 °C. With `CCOC(=O)CCSc1nnsc1-c1ccc(F)cc1`, the melting point lay in the range of 76.5 to 77.5 °C. Regarding `CC(C)[C@]1(CCc2ccc(O)cc2)CC(O)=C(Sc2sc3ccccc3c2C(C)(C)C)C(=O)O1`, the melting point is 207 °C. `COC(=O)c1ccc(CN2C(=O)C(CCOc3ccc(CCNC(=O)OC(C)(C)C)cc3)Oc3ccccc32)cc1` (centres undefined) registered a melting point of 110 to 112 °C. `NCc1cccc(Nc2n[nH]c3ncnc(Nc4cccc(Cl)c4)c23)c1`: the melting point was in the range of 212 to 214 °C. The result for `N#Cc1ccccc1NC(=O)C(=O)N1CCC(Cc2ccc(F)cc2)CC1` reads 101 to 103 °C.

On to `O=C(NC1CCN(C(=O)NCCC2(C(=O)NCC(F)(F)F)c3ccccc3-c3ccccc32)CC1)c1ccccc1`, for which the melting point was 220 to 222 °C. In the case of `COc1c(Br)c(O)c(Br)c2nc(-c3ccc(O)cc3)oc12`, the melting point was in the range of 246 to 248 °C.

`CC(=O)NC(=O)CSC(C)=O` had a melting point of 140 to 142 °C.

The compound `c1ccc(COCC2c3ccccc3-c3ccccc32)cc1` returned a melting point of 69.5 to 70 °C. With `CCc1cccc(CSC)c1NC(=O)CC1c2ccccc2Oc2ccccc21`, the melting point was in the range of 122 to 123 °C. As for `O=C(/C=C/c1ccc(C(F)(F)F)cc1Br)Nc1ccc2[nH]ccc2c1`, the figure is 205 to 207 °C; as for `N[C@H]1Cc2ccccc2[C@@H]1O`, 104 to 106 °C; as for `CC(N=Cc1ccc(O)cc1)c1ccccc1` (single isomer, unassigned; (-)), 176 to 178 °C. As for `COc1cc(C(=O)N[C@@H]2c3cc(OC(F)(F)F)ccc3OC(C)(C)[C@H]2O)c([N+](=O)[O-])cc1OC`, the figure is 97 °C. The compound `CC(C)N(C(=O)Cn1cncn1)c1ccccc1` registered a melting point of 125 °C. `Cc1cc(-c2noc(C3CC3)n2)cc(C)c1OCCCc1cc(O)no1` came in with a melting point of 155 to 156 °C. The result for `CN1Cc2c([N+](=O)[O-])ncn2-c2ccccc2C1=O` reads 227 to 229 °C. As for `COCCOc1cc(Oc2ccc(C(F)(F)F)cn2)ccc1CCCOc1cc(CCC(=O)O)n(-c2ccccc2)n1`, the figure is 83 to 85 °C; as for `Cc1oc(=O)oc1CSc1ccc(Cl)cc1`, 54 to 57 °C.

The compound `O=c1oc(-c2cc(C(F)(F)F)cc(C(F)(F)F)c2)ns1` gave a melting point of 61 to 62.5 °C. `CC(C)(C)[Si](C)(C)Oc1ccc(CCNc2ncnc3nccnc23)cc1` gave a melting point of 164 to 165 °C. `COC(=O)C(C)(OCc1ccc2cc(OC)ccc2c1)C(F)(F)F` (centres undefined) came in with a melting point of 60 to 62 °C. The result for `CC(C)(C)C(NC(=O)Nc1ccccc1F)NC(=O)c1ccc(Cl)cc1` (centres undefined) reads 229 to 230 °C; that for `OC(CN1CCC(c2ccc(F)cc2)CC1)CN1CCC(c2ccc(F)cc2)CC1`, 79 to 80 °C. As for `O=S1(=O)c2cccc3cccc(c23)N1CCCN1CCN(c2ccc(Cl)cc2)CC1`, the melting point amounted to 120 °C. The result for `CCCN(CCC)C(=O)Cn1c(-c2ccc(Br)cc2)nc2cccnc21` reads 153 to 155 °C; that for `CC(C)c1cc(-c2ccc(F)cc2)c(CO)c(C(C)C)n1`, 88 to 90 °C; that for `CCOC(=O)c1ccc(CN2CC[C@H](NC(=O)OC(C)(C)C)C2=O)c(C(F)(F)F)c1`, 93 to 95 °C. `CC(C)S(=O)(=O)n1c(N)nc2ccc(C(=CC(N)=O)c3ccccc3)cc21`: the melting point lay in the range of 211 to 212 °C.

Compound `CCCc1cc(NC(=O)N2CCN(c3cc(F)cc(F)c3)CC2)c(OC)nc1C` registered a melting point of 121 to 123 °C. As for `COc1ccc(NS(=O)(=O)N2CCn3c(c(C(N)=O)c(Cl)c3-c3ccccc3)C2)cc1`, the figure is 152 to 154 °C; as for `Cc1nnc(S(=O)(=O)C(Br)(Br)Br)s1`, 169 to 173 °C; as for `CC(C)N1C(=O)N(c2ccc(C#N)c(C(F)(F)F)c2)C(=O)C1(CF)CF`, 153 to 154 °C.

In the case of `CCCCOC(=O)c1ccccc1C(=O)Nc1nc2ccccc2[nH]1`, the melting point worked out at 187 °C.

`O=[N+]([O-])c1cccc(Nc2nc(Cl)nc(Cl)n2)c1` registered a melting point of 173 °C. As for `CCOC(=O)c1cn(Nc2ccc(F)cc2F)c2nc(Cl)c(F)cc2c1=O`, the figure is 210 to 212 °C; as for `Brc1cccc(C=C2c3ccccc3CCc3ccccc32)c1`, 105 °C; as for `CCOC(=NS(=O)(=O)c1ccccc1OC(F)F)OCC`, 80 to 81 °C. The result for `CCOC[PH](=O)SCCSCCNC(=O)CCCCCn1c(=O)n(C)c(=O)c2[nH]cnc21` (centres undefined) reads 103 to 106 °C; that for `O=C1C=C(Cl)C(=O)c2ccccc21`, 154 to 156 °C; that for `CC(C)c1cc(C(=O)Nc2ccc(C(=O)O)nc2)sc1C(C)C`, 216 to 217 °C.

As to `Cc1ccc(-c2nc(Cc3cccc(C=O)c3)c(C)o2)cc1`, the melting point was in the range of 98 to 99 °C. The result for `Nc1ncnc2c1nc(Sc1cc3c(cc1Br)OCO3)n2CCCCCC(=O)NO` reads 160 to 169 °C; that for `CCCC1(C)OC(=O)C(c2ccc(F)cc2)=C1c1ccc(S(C)(=O)=O)cc1` (centres undefined), 112 to 113 °C.

As to `CCC(CC)(c1ccccc1F)c1c[nH]c2c(NS(C)(=O)=O)cccc12`, the melting point lay within 144 to 146 °C. As for `O=C(OCC1CC1)c1ncn2c1[C@@H]1CCCN1C(=O)c1c(Br)cccc1-2`, the figure is 135 to 136 °C; as for `CCc1c(-c2ccc(O)cc2)c2ccc3c(NC(C)=O)ccc1n32`, 147 to 149 °C. The compound `Cc1ccc(Nc2ccnc(-n3nc(C)cc3C)n2)cc1` had a melting point of 52 to 55.6 °C. `Cc1oc(-c2ccco2)nc1COc1ccc(Cn2cc(CCC(=O)O)c(-c3ccccc3)n2)cc1` came in with a melting point of 152 to 153 °C. Turning to `COc1ccc(C(=O)Nc2c(Cl)cncc2Cl)c2c1oc1ccc(NC(C)=O)cc12`, the melting point came out at 252 °C. Compound `CN(C)c1ccc(Nc2ccccc2)cc1` came in with a melting point of 163 to 166 °C. The compound `O=c1cc(S)sc2cc(N3CCOCC3)ccc12` displayed a melting point greater than 250 °C.

Regarding `CCCc1c(OCc2ccccc2C(=O)OC)ccc(C(C)=O)c1O`, the melting point lay within 90 to 93 °C. With `COC(=O)c1cc(C)c(-c2cccc(OCc3ccc(COC(=O)c4ccccc4)c(COC(=O)c4ccccc4)c3)c2C)c(C)c1`, the melting point is 131 to 132 °C. Regarding `COc1ccc(Cn2nnnc2S(=O)(=O)c2ccc(C)cc2)cc1`, the melting point was in the range of 125 to 126 °C. The compound `COc1ccc2nc(-c3csc4ccccc34)[nH]c(=O)c2c1` registered a melting point of 289 to 290 °C.

`C=CCNc1cc(Oc2ccccc2)ccc1[N+](=O)[O-]`: the melting point lay within 67 to 68 °C.

`O=C1c2cc(Cl)ccc2OC(CCCCl)N1O` (centres undefined) returned a melting point of 70 to 75 °C. Consider `COc1ccc2c(c1)C(C(=O)N(Cc1ccc(C#N)cc1)c1ccc(C(C)C)cc1)CCC2` (centres undefined), for which the melting point lay within 137 to 138 °C. The result for `CS(=O)(=O)c1ccc(-c2oncc2C(=O)C2CC2)cc1Cl` reads 148 to 150 °C; that for `Cc1cc(C#N)sc1-c1ccc2c(c1)C(C)(C)OC(C(F)(F)F)N2` (centres undefined), 97 to 98 °C; that for `COc1ccc(CNc2nc(NC[C@@H](C)O)nc3c2ncn3C(C)C)c(O)c1`, 106 to 108 °C.

`O=C1N(CC2CCCO2)c2ccccc2C12COc1cc3c(cc12)CCCO3` (centres undefined): the melting point lay in the range of 151 to 156 °C. `CCOc1cccc(Oc2cccnc2C#N)c1` registered a melting point of 83 to 84 °C.
